Measured values reported in ChEMBL document CHEMBL4834430, “Design and Structure-Activity Relationships of Isothiocyanates as Potent and Selective N-Acylethanolamine-Hydrolyzing Acid Amidase Inhibitors” (J Med Chem, 2021).

Key:
[1] = molecular target: T1, N-acylethanolamine-hydrolyzing acid amidase (Homo sapiens, UniProt Q02083); assay: Inhibition of human NAAA using N-(4-methyl coumarin)-palmitamide as fluorogenic substrate preincubated for 90 mins followed by substrate addition by fluorescence assay
T1 sequence (Q02083 whole entry): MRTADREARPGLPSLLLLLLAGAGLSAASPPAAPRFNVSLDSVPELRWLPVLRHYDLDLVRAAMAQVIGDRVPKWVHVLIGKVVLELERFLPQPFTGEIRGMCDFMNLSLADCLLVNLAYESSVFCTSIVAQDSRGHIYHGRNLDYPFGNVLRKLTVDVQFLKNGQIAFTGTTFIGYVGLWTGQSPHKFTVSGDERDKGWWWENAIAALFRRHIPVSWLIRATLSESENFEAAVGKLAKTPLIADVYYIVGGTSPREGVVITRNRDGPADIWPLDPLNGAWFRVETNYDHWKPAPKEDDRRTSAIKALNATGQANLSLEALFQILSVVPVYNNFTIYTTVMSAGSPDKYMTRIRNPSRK

[2] = Drug metabolism in rat liver microsomes assessed as (R)-2-amino-3-((1s,3S)-3-(2-fluoro-4-(2-methoxypyridin-3-yl)benzyloxy)cyclobutylcarbamothioylthio)propanoic acid formation at 1 uM in absence of NADPH by LC-MS/MS analysis; format: ADME, Microsome
[3] = Half life in human liver microsomes at 1 uM in presence of NADPH by LC-MS/MS analysis; format: ADME, Microsome
[4] = Drug metabolism in rat liver microsomes assessed as (1s,3s)-3-(2-fluoro-4-(2-methoxypyridin-3-yl)benzyloxy)cyclobutanamine formation at 1 uM in presence of NADPH by LC-MS/MS analysis; format: ADME, Microsome
[5] = Drug metabolism in rat liver microsomes assessed as (2-fluoro-4-(2-methoxypyridin-3-yl)phenyl)methanol formation at 1 uM in presence of NADPH by LC-MS/MS analysis; format: ADME, Microsome
[6] = Half life in mouse liver microsomes at 1 uM in presence of NADPH by LC-MS/MS analysis; format: ADME, Microsome
[7] = Drug metabolism in rat liver microsomes assessed as […] (R)-2-amino-3-((1s,3S)-3-(2-fluoro-4-(2-methoxypyridin-3-yl)benzyloxy)cyclobutylcarbamoylthio)propanoic acid formation at 1 uM in absence of NADPH by LC-MS/MS analysis; format: ADME
[8] = Half life in rat liver microsomes at 1 uM in presence of NADPH by LC-MS/MS analysis; format: ADME, Microsome
[9] = molecular target: T1, N-acylethanolamine-hydrolyzing acid amidase; assay: Inhibition of NAAA (unknown origin)

Row | SMILES | IC50 [1] | Drug metabolism [2] | half-life at 1 µM [3] | Drug metabolism [4] | Drug metabolism [5] | half-life at 1 µM [6] | Drug metabolism [7] | half-life at 1 µM [8] | IC50 [9]
1 | COc1ncccc1-c1ccc(CO[C@H]2C[C@@H](N=C=S)C2)c(F)c1 | 304 nM | Metabolite_Detected | 15.3 min | Metabolite_Detected | Metabolite_Detected | 6.8 min | Metabolite_Detected | 14.5 min | 
2 | O=C(CCCCCc1cccc(Cl)c1)N1CCOC1=O |  |  |  |  |  |  |  |  | 9 nM
